From US8889377B2, “GPCR comprising an IC2 insertion” (ConfometRx, Inc., priority 2010, dated 2014)

Test system: mGluR5 and Rock10 (mGluR5-T4 lysozyme fusion protein of FIG. 3)
Assay: 3H-MPEP ligand binding in membranes of transfected HEK293 cells
Set-up: species or system human
Conditions: HEK293 cell membranes; ^3H-MPEP radioligand; wild-type mGluR5 vs fusion protein Rock10 (FIG. 6)
Experimental: HEK293 cells were cultured on plastic dishes at 37° C. with 5% CO2 in Dulbecco's modified Eagle's medium (Cellgro) with 5% fetal bovine serum. For an individual expression experiment, cells at confluency were split, and approximately 100,000 cells were used to seed glass cover slips in the same medium. After 2 d, cells are transfected with the addition of 1 μg of a given pCDNA3-receptor plasmid and 3 μl of Fugene 6 reagent (Roche). 48 h after transfection, cells were harvested and membranes prepared for ligand binding analysis. ^3H-MPEP (a negative allosteric modulator that binds to the transmembrane domains of mGluR5) was used to detect functional mGluR5 in HEK293 cell membranes (see FIG. 6).

`Cc1cccc(C#Cc2ccccc2)n1` [MPEP] was tested, and the “affinity of MPEP for mGluR5 compared with Rock10” value was “same affinity for mGluR5 as Rock10”.
